Laboratory results taken from US4496521A, “Insulin-potentiating peptides” (The Whittier Institute for Diabetes and Endocrinology, priority 1983, dated 1985).

What was measured:
[1] = test system: VY-F-1 hybrid yellow mice; test: (U-14C)-D-glucose incorporation in tissues of mice after a glucose load; type: in vivo
Experimental: containing an appropriate amount of (U-^14 C)-D-glucose (Amersham Radiochemicals, Arlington Heights, IN) so that about 8×10^5 dpm of radiolabeled glucose was given per mouse. Sixty minutes after administration of the mixture, the mice were sacrificed and fragments of liver, diaphragm, and adipose tissue were quickly excised and weighed in a torsion balance. The pieces were placed in vials and digested for 2 hr at 55° C. in 1 molar KOH. After cooling to room temperature, the scintillation liquid was added to the vials. Radioactivity was measured the next day, and an average efficiency of 60% was measured using the internal standard method. Samples of blood were collected at the desired time by intraorbital puncture. Glucose content in the chilled plasma was determined in triplicates by the glucose oxidase method. Blood concentration of radioactive glucose was determined using 20 μl of plasma. Glucose incorporation (GI), expressed in arbitrary units, was calculated by the following equation for the various tissues: [formula] The specific activity of plasma glucose is defined as disintegrations per minute of radioactivity×1000 per 100 μl plasma, divided by milligrams of glucose per 100 ml. of plasma. Statistical significance was determined by 1-way analysis of variance and Duncan's multiple range t-test. Yellow (A^vy /A) and agouti (A/a) virgin (BALB/c×VY)F-1 hybrid female mice were produced by mating BALB/[…] females by […] males. The mice were housed 3 per 7"×5"×11" polypropylene cage with pine shavings as bedding and fed Wayne Lab Blox (Allied Mills, Inc.) 10% fat diet and tap water ad libitum. Ambient temperature was about 22±1° C., and a 12 hr light cycle was maintained. […] Whereas the effect upon the incorporation of glucose in the diaphragm was of lesser magnitude, it is possible that the values represent the maximal rate of glucose utilization by this muscle. […] Further testing was carried out on other mice to show the effect of insulin on the utilization of glucose in similar mice. Because the animals were obese and a maximal effect was desired, a large amount of hormone (50 milliunits per mouse) were used.

[2] = Plasma glucose in mice given a glucose load (glucose oxidase method); type: in vivo; settings: for Plasma Glucose 0 min: sample at 0 min; for Plasma Glucose 60 min: sample at 60 min
Experimental: Injections were made intraperitoneally 30 min before administration of a glucose load of 2 mg/g of body weight containing an appropriate amount of (U-^14 C)-D-glucose (Amersham Radiochemicals, Arlington Heights, IN) so that about 8×10^5 dpm of radiolabeled glucose was given per mouse. Sixty minutes after administration of the mixture, the mice were sacrificed and fragments of liver, diaphragm, and adipose tissue were quickly excised and weighed in a torsion balance. The pieces were placed in vials and digested for 2 hr at 55° C. in 1 molar KOH. After cooling to room temperature, the scintillation liquid was added to the vials. Radioactivity was measured the next day, and an average efficiency of 60% was measured using the internal standard method. Samples of blood were collected at the desired time by intraorbital puncture. Glucose content in the chilled plasma was determined in triplicates by the glucose oxidase method. Blood concentration of radioactive glucose was determined using 20 μl of plasma. Glucose incorporation (GI), expressed in arbitrary units, was calculated by the following equation for the various tissues: [formula]
Further testing was carried out on other mice to show the effect of insulin on the utilization of glucose in similar mice. Because the animals were obese and a maximal effect was desired, a large amount of hormone (50 milliunits per mouse) were used.

[3] = test system: adipose tissue from hypophysectomized rats; test: Stimulation of glucose oxidation in adipose tissue from hypophysectomized rats; type: cell-based; settings: for ability to stimulate glucose oxidation in adipose tissue: native peptides at concentrations up to 50 μg per ml
Text: Biochem., 11, 559-570. The detailed extraction procedure actually employed is set forth in "Human Growth Hormone Peptide 1-43: Isolation from Pituitary Glands", Singh et al., J. Protein Chem., (in press) (1983).

[4] = mice; Frigeri et al., Endocrine Society Abstract #88; cited from earlier work
[5] = Hypoglycemic activity of insulin when the peptide is given together with insulin; type: in vivo
[6] = Group B: insulin 50 mU per mouse 30 min before glucose
[7] = Group B: insulin 50 mU per mouse 30 min before glucose, listed as insulin
[8] = Group C: insulin 50 mU per mouse 5 min before glucose load
[9] = Group C: insulin 50 mU per mouse 5 min before glucose load, listed as insulin
[10] = Table IA, increase versus saline, 50 μg, 30 min before glucose
[11] = Table I, increase versus saline, 50 μg, 30 min before glucose

Question: Which results are given for “Insulin: hormone which controls storage and oxidation of sugar; given at 50 mU per mouse”?
Answer: Glucose Incorporation Adipose Tissue [1, 6]: 9.1 ± 0.82 arbitrary units/g of tissue; Glucose Incorporation Diaphragm [1, 6]: 54.4 ± 2.8 arbitrary units/g of tissue; Glucose Incorporation Liver [1, 6]: 36.6 ± 2.6 arbitrary units/g of tissue; Glucose Incorporation Adipose Tissue [1, 7]: rose; Glucose Incorporation Diaphragm [1, 7]: rose; Glucose Incorporation Liver [1, 7]: fell sharply below control levels; Glucose Incorporation Adipose Tissue [1, 8]: 9.0 ± 1.05 arbitrary units/g of tissue; Glucose Incorporation Diaphragm [1, 8]: 52.2 ± 2.4 arbitrary units/g of tissue; Glucose Incorporation Liver [1, 8]: 64.4 ± 9.5 arbitrary units/g of tissue; Glucose Incorporation Adipose Tissue [1, 9]: rose to values similar to those observed in the -30 minute treated group; Glucose Incorporation Diaphragm [1, 9]: rose to values similar to those observed in the -30 minute treated group; Glucose Incorporation Liver [1, 9]: remained unchanged; Plasma Glucose 0 min [2, 6]: 70 ± 8.3 mg/dL; Plasma Glucose 0 min [2, 7]: dropped sharply; Plasma Glucose 60 min [2, 6]: 182 ± 11.8 mg/dL; Plasma Glucose -30 min ([2]; Group B: insulin 50 mU per mouse 30 min before glucose, sample at -30 min): 122 ± 2.8 mg/dL; Plasma Glucose 0 min [2, 8]: 151. ± 9.5 mg/dl; Plasma Glucose 60 min [2, 8]: 270 ± 31 mg/dL; Plasma Glucose -5 min ([2]; Group C: insulin 50 mU per mouse 5 min before glucose load, sample at -5 min): 129 ± 6.5 mg/dL

Question: Which “level at which glucose oxidation stimulating activity is shown” value ([3]; purified GH) does the source give for “GH: purified growth hormone, used as active comparator in the glucose oxidation assay” here?
Answer: Its value is 0.2 ng per ml.

Question: Which glucose tolerance [4] does the source give for “fragment corresponding to amino acid residues 32-46: fragment corresponding to amino acid residues 32-46 of human GH (literature) (EEAYIPKEQKYSFLQ; UniProt P01241 58-72, looked up, fragment)” here?
Answer: The glucose tolerance was “could improve the glucose tolerance”.

Question: Which “Glucose Incorporation Liver (%)” value [1, 10] does the source give for “H-AHRLHQLAFDTYQEFEEAYIPKEQKYS-OH [hGH(17-43), H--Ala--His--Arg--Leu--His--Gln--Leu--Ala--Phe--Asp--Thr--Tyr--Gln--Glu--Phe--Glu--Glu--Ala--Tyr--Ile--Pro--Lys--Glu--Gln--Lys--Tyr--Ser--OH]” here?
Answer: The value was ~35%.

Question: What about the “ability to stimulate glucose oxidation in adipose tissue” value [3] of the same compound?
Answer: The value was “inactive”.

Question: For `CC[C@H](C)[C@H](NC(=O)[C@H](Cc1ccc(O)cc1)NC(=O)[C@H](C)NC(=O)[C@H](CCC(=O)O)NC(=O)[C@H](CCC(=O)O)NC(=O)[C@H](Cc1ccccc1)NC(=O)[C@H](CCC(=O)O)NC(=O)[C@H](CCC(N)=O)NC(=O)[C@H](Cc1ccc(O)cc1)NC(=O)[C@@H](NC(=O)[C@H](CC(=O)O)NC(=O)[C@H](Cc1ccccc1)NC(=O)[C@H](C)NC(=O)[C@H](CC(C)C)NC(=O)[C@H](CCC(N)=O)NC(=O)[C@H](Cc1c[nH]cn1)NC(=O)[C@H](CC(C)C)NC(=O)[C@H](CCCNC(=N)N)NC(=O)[C@H](Cc1c[nH]cn1)NC(=O)[C@H](C)NC(=O)[C@H](CCCNC(=N)N)NC(=O)[C@H](CC(C)C)NC(=O)[C@H](CCSC)NC(=O)[C@H](C)NC(=O)[C@H](CC(N)=O)NC(=O)[C@H](CC(=O)O)NC(=O)[C@H](Cc1ccccc1)NC(=O)[C@H](CC(C)C)NC(=O)[C@H](CCCNC(=N)N)NC(=O)[C@H](CO)NC(=O)[C@H](CC(C)C)NC(=O)[C@@H]1CCCN1C(=O)[C@@H](NC(=O)[C@@H](NC(=O)[C@@H]1CCCN1C(=O)[C@@H](N)Cc1ccccc1)[C@@H](C)O)[C@@H](C)CC)[C@@H](C)O)C(=O)N1CCC[C@H]1C(=O)N[C@@H](CCCCN)C(=O)N[C@@H](CCC(=O)O)C(=O)N[C@@H](CCC(N)=O)C(=O)N[C@@H](CCCCN)C(=O)N[C@@H](Cc1ccc(O)cc1)C(=O)N[C@@H](CO)C(=O)O` [hGH(1-43), H--Phe--Pro--Thr--Ile--Pro--Leu--Ser--Arg--Leu--Phe--Asp--Asn--Ala--Met--Leu--Arg--Ala--His--Arg--Leu--His--Gln--Leu--Ala--Phe--Asp--Thr--Tyr--Gln--Glu--Phe--Glu--Glu--Ala--Tyr--Ile--Pro--Lys--Glu--Gln--Lys--Tyr--Ser--OH], which “Glucose Incorporation Diaphragm” value ([1]; Table I, 50 μg intraperitoneally 30 min before glucose load, Mean ± SEM) is on record?
Answer: Its value is 52.0 arbitrary units/g of tissue.

Question: What about the “Glucose Incorporation Liver” value ([1]; Table I, 50 μg intraperitoneally 30 min before glucose load, tissue 60 min after glucose, Mean ± SEM) of the same compound?
Answer: Its value is 135.9 arbitrary units/g of tissue.

Question: What about the “Glucose Incorporation Adipose Tissue (%)” value [1, 11] of the same compound?
Answer: Its value is 63%.

Question: What about the “Glucose Incorporation Diaphragm (%)” value [1, 11] of the same compound?
Answer: Its value is 17%.

Question: What about the “Glucose Incorporation Liver” value ([1]; Table IA, 50 μg 30 min before glucose load, Mean ± SEM) of the same compound?
Answer: Its value is 115.2 ± 16 arbitrary units/g of tissue.

Question: And the “Glucose Incorporation Liver (%)” value [1, 10]?
Answer: Its value is 35%.

Question: What about the “change of plasma glucose after administration of the peptide” value ([2]; after administration of hGH(1-43)) of the same compound?
Answer: The value was “no significant decrease”.

Question: What about the “stimulation of in vitro glucose oxidation in adipose tissue” value ([3]; in vitro) of the same compound?
Answer: The value was “does not stimulate”.

Question: And the “ability to stimulate glucose oxidation in adipose tissue” value [3]?
Answer: Its value is “inactive”.

Question: And the “hypoglycemic activity of insulin” value [5]?
Answer: The value was “an increase of its hypoglycemic activity is observed”.
